Experimental data taken from US12568969B2, “Pyridine compounds for controlling invertebrate pests” (FMC Corporation, priority 2020, dated 2026).

What was measured:
Assay type in all cases: in vivo
[1] = system: corn planthopper (Peregrinus maidis (Ashmead)); experiment: whole plant or invertebrate; conditions: Peregrinus maidis, 144 h, 6 days; for mortality at 50 ppm: sprayed at 50 ppm; for mortality at 250 ppm: sprayed at 250 ppm; for mortality at 10 ppm: sprayed at 10 ppm
Description: (§1) Test compounds were formulated using a solution containing 10% acetone, […] and 300 ppm Activator 909 non-ionic surfactant (Loveland Products, Loveland, Colorado, USA). The formulated compounds were applied in 1 mL of liquid through an atomizer nozzle positioned 1.27 cm (0.5 inches) above the top of each test unit. Test compounds were sprayed at the rates indicated, and each test was replicated three times.
For evaluating control of corn planthopper (Peregrinus maidis (Ashmead)) through contact and/or systemic means, the test unit consisted of a small open container with a 3-4-day-old corn (maize) plant inside. White sand was added to the top of the soil prior to application of the test compound.
Test compounds were formulated and sprayed at 250 and/or 50 ppm and/or 10 ppm. After spraying of the formulated test compound, the test units were allowed to dry for 1 h before they were post-infested with ˜15-20 nymphs (18-to-21-day-old). A black, screened cap was placed on the top of each test unit, and the test units were held for 6 days in a growth chamber at 22-24° C. and 50-70% relative humidity. Each test unit was then visually assessed for insect mortality.

[2] = system: cotton melon aphid (Aphis gossypii (Glover)); experiment: whole plant or invertebrate; conditions: Aphis gossypii, 144 h, 6 days; for mortality at 50 ppm: sprayed at 50 ppm; for mortality at 250 ppm: sprayed at 250 ppm
Description: as §1
[…] This was pre-infested with 30-40 insects on a piece of leaf according to the cut-leaf method, and the soil of the test unit was covered with a layer of sand.
Test compounds were formulated and sprayed at 250 and/or 50 ppm. After spraying, the test units were maintained in a growth chamber for 6 days at 19° C. and 70% relative humidity. Each test unit was then visually assessed for insect mortality.

[3] = system: green peach aphid (Myzus persicae (Sulzer)); experiment: Test D: control of green peach aphid on radish plant, spray; conditions: Myzus persicae, 144 h, 6 days; for mortality at 250 ppm: sprayed at 250 ppm; for mortality at 50 ppm: sprayed at 50 ppm
Description: as §1
For evaluating control of green peach aphid (Myzus persicae (Sulzer)) through contact and/or systemic means, the test unit consisted of a small open container with a 12-15-day-old radish plant inside. This was pre-infested by placing on a leaf of the test plant 30-40 aphids on a piece of leaf excised from a culture plant (cut-leaf method). The aphids moved onto the test plant as the leaf piece desiccated. After pre-infestation, the soil of the test unit was covered with a layer of sand.
[…] After spraying of the formulated test compound, each test unit was allowed to dry for 1 hour and then a black, screened cap was placed on top. The test units were held for 6 days in a growth chamber at 19-21° C. and 50-70% relative humidity. Each test unit was then visually assessed for insect mortality.

[4] = system: sweetpotato whitefly (Bemisia tabaci (Gennadius)); experiment: Test F: control of sweetpotato whitefly on cotton plant, spray; conditions: 312 h, 13 days; for mortality at 50 ppm: sprayed at 50 ppm; for mortality at 250 ppm: sprayed at 250 ppm
Description: as §1
For evaluating control of the sweetpotato whitefly (Bemisia tabaci (Gennadius)) through contact and/or systemic means, the test unit consisted of a small open container with a 12-14-day-old cotton plant inside. Prior to the spray application, both cotyledons were removed from the plant, leaving one true leaf for the assay. Adult whiteflies were allowed to lay eggs on the plant and then were removed from the test unit. Cotton plants infested with at least 15 eggs were submitted to the test for spraying.
Test compounds were formulated and sprayed at 250 and/or 50 ppm. After spraying, the test units were allowed to dry for 1 hour. The cylinders were then removed, and the units were taken to a growth chamber and held for 13 days at 28° C. and 50-70% relative humidity. Each test unit was then visually assessed for insect mortality.

| Compound | mortality at 50 ppm [1] | mortality at 250 ppm [1] | mortality at 50 ppm [2] | mortality at 250 ppm [2] | mortality at 10 ppm [1] | mortality at 250 ppm [3] | mortality at 50 ppm [3] | mortality at 50 ppm [4] | mortality at 250 ppm [4] |
| --- | --- | --- | --- | --- | --- | --- | --- | --- | --- |
| COC(c1ccc(C(C)(C)C)cc1)c1c(F)cncc1-c1ncno1 (stereo not shown) [Compound 139] | ≥ 80% | ≥ 80% |  |  |  |  |  |  |  |
| FC(c1ccc(SC(F)(F)F)cc1)c1c(Br)cncc1-n1cccn1 (stereo not shown) [Compound 85] | ≥ 80% | ≥ 80% | ≥ 80% | ≥ 80% |  |  |  |  |  |
| FC(c1ccc(SC(F)(F)F)cc1)c1c(Cl)cncc1-n1cccn1 (stereo not shown) [Compound 102] |  |  | ≥ 80% | ≥ 80% |  |  |  |  |  |
| Cc1cscc1-c1cncc(F)c1C(F)c1ccc(SC(F)(F)F)cc1 (stereo not shown) [Compound 114] | ≥ 80% | ≥ 80% |  |  | ≥ 80% |  |  |  |  |
| Cc1cncc(-n2nccn2)c1C(F)c1ccc(OC(F)(F)F)cc1 (stereo not shown) [Compound 38] | ≥ 80% | ≥ 80% | ≥ 80% | ≥ 80% | ≥ 80% | ≥ 80% |  |  |  |
| COC(c1ccc(SC(F)(F)F)cc1)c1c(F)cncc1-c1nccs1 (stereo not shown) [Compound 75] |  | ≥ 80% |  | ≥ 80% |  |  |  |  |  |
| COC(c1ccc(OC(F)(F)F)cc1)c1c(F)cncc1-c1ncno1 (stereo not shown) [Compound 138] | ≥ 80% | ≥ 80% |  |  |  |  |  |  |  |
| Fc1cncc(-c2nc[nH]n2)c1C(F)c1ccc(OC(F)(F)F)cc1 (stereo not shown) [Compound 40] | ≥ 80% |  |  |  |  |  |  |  |  |
| Fc1cncc(-c2cscn2)c1C(F)c1ccc(OC(F)(F)F)cc1 (stereo not shown) [Compound 49] | ≥ 80% | ≥ 80% |  | ≥ 80% | ≥ 80% |  |  |  |  |
| FC(c1ccc(SC(F)(F)F)cc1)c1ccncc1-n1ccnn1 (stereo not shown) [Compound 68] |  |  | ≥ 80% | ≥ 80% |  | ≥ 80% |  |  |  |
| [O-][S+](c1ccc(C(F)c2c(F)cncc2-n2cccn2)cc1)C(F)(F)F (stereo not shown) [Compound 73] |  |  | ≥ 80% | ≥ 80% |  |  |  |  |  |
| COC(c1ccc(OC(F)(F)F)cc1)c1c(Cl)cncc1-n1nccn1 (stereo not shown) [Compound 16] | ≥ 80% | ≥ 80% | ≥ 80% | ≥ 80% |  | ≥ 80% | ≥ 80% |  |  |
| COC(c1ccc(Br)cc1)c1c(F)cncc1-n1nccn1 (stereo not shown) [Compound 117] |  |  |  |  |  |  |  | ≥ 70% | ≥ 70% |
| COC(c1ccc(SC(F)(F)F)cc1)c1c(Br)cncc1-n1ccnn1 (stereo not shown) [Compound 134] |  |  |  |  |  |  |  | ≥ 70% | ≥ 70% |
| Fc1cncc(-c2ccsc2)c1C(F)c1ccc(OC(F)(F)F)cc1 (stereo not shown) [Compound 46] | ≥ 80% |  |  |  | ≥ 80% |  |  |  |  |
| Cc1ccn(-c2cncc(F)c2C(F)c2ccc(SC(F)(F)F)cc2)n1 (stereo not shown) [Compound 5] | ≥ 80% | ≥ 80% |  |  |  | ≥ 80% |  |  |  |
| COC(c1ccc(SC(F)(F)F)cc1)c1c(F)cncc1-c1ncon1 (stereo not shown) [Compound 83, 3-[5-fluoro-4-[methoxy-[4-(trifluoromethylsulfanyl)phenyl]methyl]-3-pyridyl]-1,2,4-oxadiazole] | ≥ 80% | ≥ 80% | ≥ 80% | ≥ 80% |  | ≥ 80% |  |  |  |
| Cc1cnn(-c2cncc(F)c2C(F)c2ccc(SC(F)(F)F)cc2)c1 (stereo not shown) [Compound 6] | ≥ 80% | ≥ 80% |  |  |  |  |  |  |  |
| Fc1cncc(-n2cncn2)c1C(F)c1ccc(SC(F)(F)F)cc1 (stereo not shown) [Compound 2] | ≥ 80% | ≥ 80% |  | ≥ 80% |  | ≥ 80% | ≥ 80% |  |  |
| FC(c1ccc(SC(F)(F)F)cc1)c1c(Br)cncc1-n1nccn1 (stereo not shown) [Compound 86] | ≥ 80% | ≥ 80% | ≥ 80% | ≥ 80% |  | ≥ 80% | ≥ 80% |  |  |
| Fc1cncc(-c2ccc[nH]2)c1C(F)c1ccc(OC(F)(F)F)cc1 (stereo not shown) [Compound 26] | ≥ 80% | ≥ 80% |  |  |  |  |  |  |  |

| Compound | mortality at 50 ppm [1] | mortality at 250 ppm [1] | mortality at 50 ppm [2] | mortality at 250 ppm [2] | mortality at 10 ppm [1] | mortality at 250 ppm [3] | mortality at 50 ppm [3] | mortality at 50 ppm [4] | mortality at 250 ppm [4] |
| --- | --- | --- | --- | --- | --- | --- | --- | --- | --- |
| COC(c1ccc([S+]([O-])C(F)(F)F)cc1)c1c(F)cncc1-n1cncn1 (stereo not shown) [Compound 74] |  |  | ≥ 80% | ≥ 80% |  | ≥ 80% | ≥ 80% |  |  |
| Fc1cncc(C2OCCCO2)c1C(F)c1ccc(SC(F)(F)F)cc1 (stereo not shown) [Compound 98] | ≥ 80% | ≥ 80% |  |  | ≥ 80% |  |  |  |  |
| Cc1sccc1-c1cncc(F)c1C(F)c1ccc(SC(F)(F)F)cc1 (stereo not shown) [Compound 113] | ≥ 80% | ≥ 80% | ≥ 80% | ≥ 80% | ≥ 80% |  |  |  |  |
| COC(c1ccc(SC(F)(F)F)cc1)c1c(F)cncc1-c1cc(C)no1 (stereo not shown) [Compound 82] |  | ≥ 80% |  |  |  |  |  |  |  |
| FC(c1ccc(SC(F)(F)F)cc1)c1c(Br)cncc1-n1ccnn1 (stereo not shown) [Compound 87] |  |  |  |  |  | ≥ 80% |  |  |  |
| FC(c1ccc(SC(F)(F)F)cc1)c1c(Cl)cncc1-c1ncno1 (stereo not shown) [Compound 106] | ≥ 80% | ≥ 80% | ≥ 80% | ≥ 80% | ≥ 80% |  |  |  |  |
| COC(c1ccc(OC(F)(F)F)cc1)c1c(Cl)cncc1-n1cccn1 (stereo not shown) [Compound 52] |  |  |  | ≥ 80% |  |  |  |  |  |
| Fc1cncc(-c2nccs2)c1C(F)c1ccc(SC(F)(F)F)cc1 (stereo not shown) [Compound 77] | ≥ 80% | ≥ 80% |  | ≥ 80% |  | ≥ 80% |  |  |  |
| [O-][S+](c1ccc(C(F)c2c(I)cncc2-n2nccn2)cc1)C(F)(F)F (stereo not shown) [Compound 97] |  |  | ≥ 80% | ≥ 80% |  | ≥ 80% |  |  |  |
| COC(c1ccc(SC(F)(F)F)cc1)c1c(F)cncc1-c1ncco1 (stereo not shown) [Compound 76] | ≥ 80% | ≥ 80% | ≥ 80% | ≥ 80% |  |  |  |  |  |
| O=S(=O)(c1ccc(C(F)c2c(F)cncc2-n2nccn2)cc1)C(F)(F)F (stereo not shown) [Compound 54] |  |  | ≥ 80% | ≥ 80% |  | ≥ 80% | ≥ 80% |  |  |
| CCn1ccc(-c2cncc(F)c2C(F)c2ccc(OC(F)(F)F)cc2)n1 (stereo not shown) [Compound 57] | ≥ 80% |  |  | ≥ 80% |  |  |  |  |  |
| FC(c1ccc(OC(F)(F)F)cc1)c1ccncc1-n1ccnn1 (stereo not shown) [Compound 10] | ≥ 80% | ≥ 80% |  |  |  |  |  |  |  |
| CC(C)(C)c1ccc(C(F)c2c(Cl)cncc2-n2nccn2)cc1 (stereo not shown) [Compound 110] | ≥ 80% | ≥ 80% |  |  | ≥ 80% |  |  |  |  |
| Fc1cncc(-c2cccs2)c1C(F)c1ccc(SC(F)(F)F)cc1 (stereo not shown) [Compound 111] | ≥ 80% | ≥ 80% | ≥ 80% | ≥ 80% | ≥ 80% |  |  |  |  |
| Fc1cncc(C2OCCO2)c1C(F)c1ccc(SC(F)(F)F)cc1 (stereo not shown) [Compound 96] | ≥ 80% | ≥ 80% | ≥ 80% | ≥ 80% | ≥ 80% | ≥ 80% |  |  |  |
| O=S(=O)(c1ccc(C(F)c2c(Br)cncc2-n2nccn2)cc1)C(F)(F)F (stereo not shown) [Compound 64] | ≥ 80% |  |  | ≥ 80% |  |  |  |  |  |
| COC(c1ccc(SC(F)(F)F)cc1)c1c(F)cncc1-n1cccn1 (stereo not shown) [Compound 70] | ≥ 80% | ≥ 80% | ≥ 80% | ≥ 80% | ≥ 80% | ≥ 80% |  |  |  |
| COC(c1ccc([S+]([O-])C(F)(F)F)cc1)c1c(F)cncc1-n1cccn1 (stereo not shown) [Compound 72] |  |  |  | ≥ 80% |  | ≥ 80% |  |  |  |
| COC(c1ccc(OC(F)(F)F)cc1)c1c(Br)cncc1-n1nccn1 (stereo not shown) [Compound 65] | ≥ 80% |  |  |  |  |  |  |  |  |
